Source: patent US9243038B2, “Macrocyclic insulin-degrading enzyme (IDE) inhibitors and uses thereof” (President and Fellows of Harvard College, priority 2011, dated 2016)
Read-outs that look alike come from different tables or passages of the source.

Key:
IDE [1] = target: T1, IDE (Homo sapiens (Human), UniProt P14735); experiment: In vitro selection of DNA-templated macrocycle library against immobilized IDE; format: binding
Protocol: Selections of the DNA-templated library were performed as described previously.^9 20 μg of IDE was immobilized on 30 μL of Dynabeads His-Tag Isolation and Pulldown (Invitrogen) magnetic particles according to the manufacturer's instructions. Elution of captured DNA-library members was performed by incubating the protein-loaded particles with 200 mM imidazole. Prior to PCR amplification, imidazole was removed from the eluted samples by gel filtration using Princeton Separations Sephadex minicolumns.
Insulin-degrading enzyme (IDE) protein was obtained in its purified form with a poly-histidine tag and immobilized on magnetic particles coated with cobalt. After incubation with the DNA-templated library, non-binding library members were washed away with buffer, and protein-library member complexes were eluted from resin with imidazole (FIG. 1). DNA-templated library members enriched after target selection were PCR amplified with target-specific barcoded primers that appended adaptors required for Illumina high-throughput DNA sequencing. We performed two independent selection replicates with IDE and three independent selections against empty resin as negative control selections. These five barcoded selection PCR amplicons were pooled in equimolar quantities and submitted for Illumina high-throughput DNA sequencing. High-throughput sequencing yielded 19 million sequence reads—an average of ˜3.8 million sequence reads per selection.
After one round of in vitro selection, we identified DNA sequences corresponding to macrocycles A12-B8-C11-D5 (3), A12-B8-C5-D5 (5), A12-B8-C6-D5 (6) and A12-B8-C8-D5 (2) enriched between 4- to 14-fold against IDE (FIG. 2a, IDE selection 1); these same macrocycles were also enriched 3- to 6-fold in a replicate IDE selection (FIG. 2a, IDE selection 2).

IDE [2] = target: T1, IDE; experiment: In vitro protease assay with IDE (cleavage of fluorophore-quencher substrate peptide); format: biochemical; settings: for potency of trans-olefin isomer relative to corresponding cis-olefin isomer: trans vs cis isomer, IDE inhibition; for activity / potency against IDE (in words): derivatives compared with 6b
Protocol: Protease assays with IDE and neprilysin were performed using Mca-RPPGFSAFK(Dnp)-OH substrate peptide (R&D Systems, SEQ ID NO: 6) and purified recombinant human IDE and recombinant human neprilysin (R&D Systems) according to the manufacturer's instructions. For IDE, 2 μL of small molecule dissolved in DMSO was combined with 48 μL 0.2 μg/mL IDE in IDE assay buffer (50 mM Tris, 1 M NaCl, pH 7.5). 50 μL of 20 μM substrate peptide in IDE assay buffer was then added to initiate the reaction, and peptide cleavage was monitored on a fluorescent plate reader (excitation=320 nm; emission=405 nm) for 5 minutes. The above protocol was also used for assaying neprilysin activity, substituting the neprilysin assay buffer (50 mM Tris, 0.05% Brij-35, pH 9.0).
Compounds were synthesized as described previously;^9 in most cases the macrocycle synthesis yielded two isomers corresponding to the cis and trans olefins generated after macrocyclization. Macrocycles were assayed for IDE inhibition by monitoring cleavage of a substrate peptide^13 containing a fluorophore-quencher pair such that cleavage of the model substrate results in increased fluorescence.

recombinant human NLN = recombinant human NLN (Homo sapiens (Human), UniProt Q9BYT8); experiment: In vitro protease assay with NLN; format: biochemical
Chain of recombinant human NLN (Q9BYT8 38-704): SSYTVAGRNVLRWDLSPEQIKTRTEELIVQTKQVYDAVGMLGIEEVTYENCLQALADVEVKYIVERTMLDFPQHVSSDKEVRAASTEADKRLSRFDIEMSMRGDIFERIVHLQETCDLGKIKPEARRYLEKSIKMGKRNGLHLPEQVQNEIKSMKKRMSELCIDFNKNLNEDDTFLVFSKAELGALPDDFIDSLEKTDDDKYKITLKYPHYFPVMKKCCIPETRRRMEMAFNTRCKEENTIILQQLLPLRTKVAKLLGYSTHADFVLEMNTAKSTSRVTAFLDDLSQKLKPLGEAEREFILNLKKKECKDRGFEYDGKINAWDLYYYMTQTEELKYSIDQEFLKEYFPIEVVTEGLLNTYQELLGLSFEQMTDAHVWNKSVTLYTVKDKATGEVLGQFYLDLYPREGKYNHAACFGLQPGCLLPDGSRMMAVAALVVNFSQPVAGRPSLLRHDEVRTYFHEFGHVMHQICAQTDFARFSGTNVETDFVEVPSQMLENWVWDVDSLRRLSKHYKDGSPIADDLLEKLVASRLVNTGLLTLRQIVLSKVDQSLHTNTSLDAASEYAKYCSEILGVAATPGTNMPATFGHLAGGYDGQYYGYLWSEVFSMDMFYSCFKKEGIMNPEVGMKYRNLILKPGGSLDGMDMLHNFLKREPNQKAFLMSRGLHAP
Protocol: (§1) Protease assays with THOP1 and NLN were performed using MCA-Pro-Leu-Gly-Pro-D-Lys(DNP)-OH (Bachem, SEQ ID NO: 7) and purified recombinant human THOP1 and NLN (R&D Systems) according to the manufacturer's instructions.

trypsin = experiment: Trypsin activity assay (Z-Arg-AMC substrate); settings: even when assayed at 100 μM
IDE [3] = target: T1, IDE; experiment: Yonetani-Theorell double inhibition of IDE; format: biochemical; settings: varying concentrations of both 6b and Ii1
Description: The lack of obvious structural relationship between 6b and known IDE substrates, together with its excellent selectivity profile, raised the possibility that 6b may inhibit IDE by binding an allosteric site, rather than the active site. To test this possibility, we assayed IDE in vitro in the presence of varying concentrations of both 6b and Ii1.

recombinant human THOP1 = recombinant human THOP1 (Homo sapiens (Human), UniProt P52888); experiment: In vitro protease assay with THOP1; format: biochemical
Chain of recombinant human THOP1 (P52888 whole entry): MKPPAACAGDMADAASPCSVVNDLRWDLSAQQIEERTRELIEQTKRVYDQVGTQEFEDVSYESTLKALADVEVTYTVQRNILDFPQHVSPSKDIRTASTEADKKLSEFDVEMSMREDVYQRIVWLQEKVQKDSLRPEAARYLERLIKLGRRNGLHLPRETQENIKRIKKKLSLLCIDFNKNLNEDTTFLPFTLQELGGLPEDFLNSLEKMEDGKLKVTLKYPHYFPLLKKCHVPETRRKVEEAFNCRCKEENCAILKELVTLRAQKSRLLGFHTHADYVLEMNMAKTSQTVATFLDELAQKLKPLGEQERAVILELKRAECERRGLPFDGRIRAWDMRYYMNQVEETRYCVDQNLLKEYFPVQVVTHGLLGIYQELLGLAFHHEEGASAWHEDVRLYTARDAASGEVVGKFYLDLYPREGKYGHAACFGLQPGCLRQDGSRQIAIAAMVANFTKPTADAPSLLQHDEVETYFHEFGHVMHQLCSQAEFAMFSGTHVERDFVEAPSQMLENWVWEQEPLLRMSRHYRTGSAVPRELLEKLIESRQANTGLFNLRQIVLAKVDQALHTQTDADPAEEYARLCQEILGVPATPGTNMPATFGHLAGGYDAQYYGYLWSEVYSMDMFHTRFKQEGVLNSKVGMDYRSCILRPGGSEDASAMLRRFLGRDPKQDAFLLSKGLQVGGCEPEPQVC
Protocol: as §1

[4] = Preliminary pharmacokinetics after i.p. injection (LC-MS quantitation in plasma); settings: mice, 20 mg/kg i.p.
plasma IDE activity = plasma IDE activity (Mus musculus (Mouse), UniProt Q9JHR7); experiment: Plasma IDE activity in mice injected with inhibitor; format: in vivo; settings: 60 min after 10 mg/kg, 20 mg/kg, or 40 mg/kg i.p. injection, vs vehicle
Chain of plasma IDE activity (Q9JHR7 other isoform, or with tags, fused parts or gaps): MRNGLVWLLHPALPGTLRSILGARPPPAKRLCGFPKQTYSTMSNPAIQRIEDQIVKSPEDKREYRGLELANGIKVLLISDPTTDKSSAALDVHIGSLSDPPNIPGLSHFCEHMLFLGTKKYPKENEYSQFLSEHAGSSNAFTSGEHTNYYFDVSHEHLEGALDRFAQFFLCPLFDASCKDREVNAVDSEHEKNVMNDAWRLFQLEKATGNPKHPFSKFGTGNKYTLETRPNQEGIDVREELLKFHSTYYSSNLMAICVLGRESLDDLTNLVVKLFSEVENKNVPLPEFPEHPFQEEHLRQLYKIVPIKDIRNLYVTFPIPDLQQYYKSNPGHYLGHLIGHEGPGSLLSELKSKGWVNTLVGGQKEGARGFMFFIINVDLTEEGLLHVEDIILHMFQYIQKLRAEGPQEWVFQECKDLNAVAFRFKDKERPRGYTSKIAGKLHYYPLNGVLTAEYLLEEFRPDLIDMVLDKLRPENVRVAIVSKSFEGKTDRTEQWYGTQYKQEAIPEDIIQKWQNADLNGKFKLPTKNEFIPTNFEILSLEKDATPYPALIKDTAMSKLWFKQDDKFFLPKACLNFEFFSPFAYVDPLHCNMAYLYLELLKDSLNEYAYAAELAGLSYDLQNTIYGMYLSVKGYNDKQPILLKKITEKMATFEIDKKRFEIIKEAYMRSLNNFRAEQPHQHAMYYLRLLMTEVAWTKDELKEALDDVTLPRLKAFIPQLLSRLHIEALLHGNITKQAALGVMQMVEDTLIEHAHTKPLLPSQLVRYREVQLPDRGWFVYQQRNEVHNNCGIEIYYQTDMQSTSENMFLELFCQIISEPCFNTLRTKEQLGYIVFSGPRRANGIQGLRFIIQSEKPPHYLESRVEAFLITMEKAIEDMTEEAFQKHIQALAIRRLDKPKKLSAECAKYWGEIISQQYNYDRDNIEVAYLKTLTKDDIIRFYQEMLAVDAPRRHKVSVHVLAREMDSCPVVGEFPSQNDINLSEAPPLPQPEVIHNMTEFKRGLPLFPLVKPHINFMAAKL
Protocol: Finally, we compared plasma IDE activity in mice injected with 6b with plasma IDE activity in control mice injected with vehicle alone (18:1:1, saline:DMSO:Tween-80). Plasma IDE activity 60 min after 10 mg/kg, 20 mg/kg, or 40 mg/kg i.p. injection of 6b was inhibited by ≧90% (FIG. 9).

[5] = Biodistribution assay (LC-MS of brain, pancreas, plasma after IP injection); format: in vivo, mouse; settings: mice, 45 minutes after intraperitoneal injection
Protocol: Macrocycles were diluted to 0.1 mg/mL or 1 mg/mL in PBS and IP-injected into a mouse to produce a concentration of 1 mg/kg or 10 mg/kg, respectively. After 45 minutes, organs were harvested, and the small-molecule fractions were extracted into a 2:1:1 mixture of chloroform:methanol:water. Samples were evaporated under a stream of nitrogen, resuspended in 100 μL of chloroform and subjected to LC-MS analysis.
The tissue distribution of enriched macrocycles after i.p. injection was examined. […] Briefly, compounds were injected at different concentrations intraperitoneally into mice, and plasma, brain, and pancreas were harvested after 45 minutes. Vehicle-only injections were performed as negative controls. We determined the relative amount of macrocycle present by extracting the organs with organic solvents and quantifying the amount of compound present by LC-MS analysis.

[6] = target: recombinant human neprilysin (Homo sapiens (Human), UniProt P08473); experiment: In vitro protease assay with neprilysin; settings: even when assayed at 100 μM
Chain of recombinant human neprilysin (P08473 whole entry): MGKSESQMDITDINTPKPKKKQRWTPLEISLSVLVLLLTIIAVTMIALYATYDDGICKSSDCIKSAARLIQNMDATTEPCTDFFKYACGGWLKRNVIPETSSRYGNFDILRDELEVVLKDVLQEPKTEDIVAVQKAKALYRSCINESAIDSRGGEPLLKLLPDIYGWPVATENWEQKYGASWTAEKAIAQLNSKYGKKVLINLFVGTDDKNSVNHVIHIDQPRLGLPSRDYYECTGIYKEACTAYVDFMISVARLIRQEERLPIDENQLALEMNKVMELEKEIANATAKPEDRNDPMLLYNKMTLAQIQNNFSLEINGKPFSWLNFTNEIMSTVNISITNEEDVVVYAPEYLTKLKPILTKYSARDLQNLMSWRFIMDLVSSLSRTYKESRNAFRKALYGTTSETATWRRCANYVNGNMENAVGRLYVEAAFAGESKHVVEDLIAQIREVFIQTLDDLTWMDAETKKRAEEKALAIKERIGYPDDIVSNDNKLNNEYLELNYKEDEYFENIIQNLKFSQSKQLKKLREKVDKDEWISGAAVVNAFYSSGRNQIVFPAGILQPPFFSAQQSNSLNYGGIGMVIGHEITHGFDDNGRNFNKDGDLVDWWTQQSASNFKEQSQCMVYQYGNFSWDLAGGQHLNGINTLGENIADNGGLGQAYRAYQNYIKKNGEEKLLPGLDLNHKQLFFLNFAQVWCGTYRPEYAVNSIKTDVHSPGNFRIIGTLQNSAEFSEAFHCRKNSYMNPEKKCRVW

Solubility = format: physicochemical
[7] = fluorophore-quencher model peptide

T1 sequence (P14735 whole entry): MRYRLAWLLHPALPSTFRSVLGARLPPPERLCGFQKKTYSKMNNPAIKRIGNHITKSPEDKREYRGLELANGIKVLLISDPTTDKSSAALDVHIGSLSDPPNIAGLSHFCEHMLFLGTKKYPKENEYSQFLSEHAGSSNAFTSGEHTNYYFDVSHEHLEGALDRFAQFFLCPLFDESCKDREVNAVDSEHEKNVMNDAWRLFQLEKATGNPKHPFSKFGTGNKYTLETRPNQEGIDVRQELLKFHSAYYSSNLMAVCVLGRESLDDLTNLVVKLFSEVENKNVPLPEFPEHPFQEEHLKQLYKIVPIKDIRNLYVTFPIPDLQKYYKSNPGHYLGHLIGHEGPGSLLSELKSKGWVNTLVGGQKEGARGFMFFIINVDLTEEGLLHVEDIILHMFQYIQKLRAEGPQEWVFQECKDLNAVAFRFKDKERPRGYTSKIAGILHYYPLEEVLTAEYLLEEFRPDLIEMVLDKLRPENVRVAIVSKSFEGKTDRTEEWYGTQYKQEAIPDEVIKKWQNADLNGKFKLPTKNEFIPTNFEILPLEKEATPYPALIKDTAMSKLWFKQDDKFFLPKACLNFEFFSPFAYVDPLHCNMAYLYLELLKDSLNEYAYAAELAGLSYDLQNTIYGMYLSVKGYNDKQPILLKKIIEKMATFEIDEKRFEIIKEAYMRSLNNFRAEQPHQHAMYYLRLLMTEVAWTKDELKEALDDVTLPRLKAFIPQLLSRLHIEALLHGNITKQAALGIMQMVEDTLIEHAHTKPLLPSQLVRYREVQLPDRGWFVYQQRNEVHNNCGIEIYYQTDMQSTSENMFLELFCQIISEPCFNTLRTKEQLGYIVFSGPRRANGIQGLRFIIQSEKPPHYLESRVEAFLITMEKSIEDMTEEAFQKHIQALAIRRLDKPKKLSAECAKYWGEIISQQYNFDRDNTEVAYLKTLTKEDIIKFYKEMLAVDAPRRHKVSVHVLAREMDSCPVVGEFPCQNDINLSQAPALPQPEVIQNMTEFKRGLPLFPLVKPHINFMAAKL

NC(=O)C1CCCCNC(=O)C(Cc2ccc(C(=O)c3ccccc3)cc2)NC(=O)C(CC2CCCCC2)NC(=O)CC(O)C(CC2CCCCC2)NC(=O)C=CC(=O)N1 (mixture of isomers) [Compound 3]
enrichment against IDE (IDE [1]; IDE selection 1, one round): 4- to 14 fold | enrichment against IDE (IDE [1]; replicate IDE selection 2): 3- to 6 fold | potency of trans-olefin isomer relative to corresponding cis-olefin isomer (IDE [2]): > 10 fold

NC(=O)C1CCCCNC(=O)CNC(=O)C(CC2CCCCC2)NC(=O)CC(O)C(CC2CCCCC2)NC(=O)C=CC(=O)N1 (mixture of isomers) [Compound 4]
enrichment against IDE (in words) (IDE [1]): less strongly enriched | activity / potency against IDE (in words) (IDE [2]): inactive

NC(=O)C1CCCCNC(=O)C(Cc2ccc(C(=O)c3ccccc3)cc2)NC(=O)C(CC2CCCCC2)NC(=O)C(CC2CC2)NC(=O)C=CC(=O)N1 (mixture of isomers) [Compound 5]
enrichment against IDE (IDE [1]; IDE selection 1, one round): 4- to 14 fold | enrichment against IDE (IDE [1]; replicate IDE selection 2): 3- to 6 fold | potency of trans-olefin isomer relative to corresponding cis-olefin isomer (IDE [2]): > 10 fold

NC(=O)CCC1NC(=O)C=CC(=O)NC(C(N)=O)CCCCNC(=O)C(Cc2ccc(C(=O)c3ccccc3)cc2)NC(=O)C(CC2CCCCC2)NC1=O (mixture of isomers) [Compound 6]
enrichment against IDE (IDE [1]; IDE selection 1, one round): 4- to 14 fold | enrichment against IDE (IDE [1]; replicate IDE selection 2): 3- to 6 fold | potency of trans-olefin isomer relative to corresponding cis-olefin isomer (IDE [2]): > 10 fold

NC(=O)CCC1NC(=O)C=CC(=O)NC(C(N)=O)CCCCNC(=O)CNC(=O)C(CC2CCCCC2)NC1=O (centres unmarked) [Compound 1]
enrichment against IDE (in words) (IDE [1]): less strongly enriched | activity / potency against IDE (in words) (IDE [2]): inactive | IC50 (IDE [2]; [7]): > 100000 nM

N=C(N)NCCCC1NC(=O)C=CC(=O)NC(C(N)=O)CCCCNC(=O)C(Cc2ccc(C(=O)c3ccccc3)cc2)NC(=O)C(CC2CCCCC2)NC1=O (centres unmarked) [Compound 2]
enrichment against IDE (IDE [1]; IDE selection 1, one round): 4- to 14 fold | enrichment against IDE (IDE [1]; replicate IDE selection 2): 3- to 6 fold | IC50 (IDE [2]; [7]): 10000 nM

NC(=O)C1CCCCNC(=O)C(Cc2ccc(C(=O)c3ccccc3)cc2)NC(=O)C(CC2CCCCC2)NC(=O)CC(O)C(CC2CCCCC2)NC(=O)C=CC(=O)N1 (centres unmarked) [Compound 3a]
IC50 (IDE [2]; [7]): > 20000 nM

NC(=O)C1CCCCNC(=O)C(Cc2ccc(C(=O)c3ccccc3)cc2)NC(=O)C(CC2CCCCC2)NC(=O)CC(O)C(CC2CCCCC2)NC(=O)C=CC(=O)N1 (centres unmarked) [Compound 3b]
IC50 (IDE [2]; [7]): 1500 nM

NC(=O)C1CCCCNC(=O)CNC(=O)C(CC2CCCCC2)NC(=O)CC(O)C(CC2CCCCC2)NC(=O)C=CC(=O)N1 (centres unmarked) [Compound 4a]
IC50 (IDE [2]; [7]): > 100000 nM

NC(=O)C1CCCCNC(=O)C(Cc2ccc(C(=O)c3ccccc3)cc2)NC(=O)C(CC2CCCCC2)NC(=O)C(CC2CC2)NC(=O)C=CC(=O)N1 (centres unmarked) [Compound 5a]
IC50 (IDE [2]; [7]): > 20000 nM

NC(=O)C1CCCCNC(=O)C(Cc2ccc(C(=O)c3ccccc3)cc2)NC(=O)C(CC2CCCCC2)NC(=O)C(CC2CC2)NC(=O)C=CC(=O)N1 (centres unmarked) [Compound 5b]
IC50 (IDE [2]; [7]): 1000 nM

NC(=O)CCC1NC(=O)C=CC(=O)NC(C(N)=O)CCCCNC(=O)C(Cc2ccc(C(=O)c3ccccc3)cc2)NC(=O)C(CC2CCCCC2)NC1=O (centres unmarked) [Compound 6a]
IC50 (IDE [2]; [7]): 5600 nM

NC(=O)CCC1NC(=O)C=CC(=O)NC(C(N)=O)CCCCNC(=O)C(Cc2ccc(C(=O)c3ccccc3)cc2)NC(=O)C(CC2CCCCC2)NC1=O (centres unmarked) [Compound 6b]
activation of NLN (recombinant human NLN; at higher concentrations): Slight activation | inhibition of neurolysin (NLN) (recombinant human NLN; even when assayed at 100 μM): failed to demonstrate any significant inhibition | inhibition of trypsin (trypsin): failed to demonstrate any significant inhibition | binding site relative to Ii1 (double inhibition plot) (IDE [3]): binding sites of Ii1 and 6b are distinct | IC50 (IDE [2]): 140 nM | IC50 (IDE [2]; [7]): 60 nM | activation of THOP1 (recombinant human THOP1; at higher concentrations): Slight activation | inhibition of thimet oligopeptidase (THOP1) (recombinant human THOP1; even when assayed at 100 μM): failed to demonstrate any significant inhibition | time of peak blood concentration [4]: 60 min | tolerability of injections [4]: well tolerated | peak blood concentration ([4]; 18:1:1 saline:DMSO:Tween-80): 0.2 µM | inhibition of plasma IDE activity (plasma IDE activity): ≥ 90% | detection in brain [5]: none of the three compounds could be detected | detection in pancreas [5]: could be detected | detection in plasma [5]: could be detected | macrocycle concentration in plasma (comparison) [5]: comparable | inhibition of neprilysin (NEP) [6]: failed to demonstrate any significant inhibition

NCCCC[C@@H]1NC(=O)/C=C/C(=O)NC(C(N)=O)CCCCNC(=O)[C@@H](Cc2ccc(C(=O)c3ccccc3)cc2)NC(=O)[C@H](CC2CCCCC2)NC1=O (some centres unmarked) [Compound 20]
solubility in water or saline (Solubility): < 100 mM | activity / potency against IDE (in words) (IDE [2]): equipotent

N=C(N)NCCC[C@H](NC(=O)[C@@H](CC(=O)NO)Cc1ccc2ccccc2c1)C(=O)N[C@@H](Cc1c[nH]c2ccccc12)C(=O)N[C@@H](CCC(=O)O)C(N)=O [Ii1, reference compound]
IC50 (recombinant human NLN): 150 nM | IC50 (recombinant human THOP1): 6 nM
